Measurements: ChEMBL document CHEMBL1144417, “Conformation mining: an algorithm for finding biologically relevant conformations” (J Med Chem, 2005)

Key:
[1] = Inhibitory activity against thrombin
[2] = target: Cyclin-dependent kinase 2 (Homo sapiens, UniProt P24941); assay: Inhibition of Cyclin-dependent kinase 2

SMILES | Ki [1] | IC50 [2]
O=C1NC2C=CC=CC2/C1=C/Nc1ccc(S(=O)(=O)Nc2nccs2)cc1 (stereo not given) | – | 1000 nM
Cc1cc(NS(=O)(=O)c2ccccc2)cc(OCCNc2ccncc2)c1 | 23 nM | –
N=C(N)c1ccc(C[C@@H](NC(=O)CNS(=O)(=O)c2ccc3ccccc3c2)C(=O)N2CCCCC2)cc1 | 7 nM | –

The next lines start with the values.

Ki [1] | IC50 [2] | SMILES
2 nM | – | N=C(N)NCCC[C@H](NC(=O)[C@@H]1CCN2CC[C@@](N)(Cc3ccccc3)C(=O)N12)C(=O)c1nccs1
1 nM | – | C[C@@H]1CCN(C(=O)[C@H](CCCNC(=N)N)NS(=O)(=O)c2cccc3c2NC[C@H](C)C3)[C@@H](C(=O)O)C1 [ARGATROBAN]
